Assay: MTT cell viability assay, compounds at 5, 1 and 0.2 μM, 48 hours
Assay type: cell-based
Details: human, A549 tumor cells
Method: MTT assay is used to determine cell proliferation, percent of viable cells, and cytotoxicity. MTT (3-[4,5-dimethylthiazol-2-yl]2,5-diphenyltetrazolium bromide) is a yellow dye, which can be absorbed by the living cells and be reduced to purplish blue formazan crystals by succinate tetrazolium reductase in mitochondria. Formazan formation can therefore be used to assess and determine the survival rate of cells.
Tumor cells (A549) were plated at 2500 cells/well of a 96-well plate in complete growth medium (DMEM+10% FBS, antibiotic/antimycotic, fungizone, L-glutamine, sodium pyruvate, and non-essential amino acids). The cells were allowed to grow overnight. After cell proliferation, the cells were washed and re-suspended in fresh culture medium and placed in 96 well plates.
To each of the 96 well plates containing A549 and a control, 5, 1, and 0.2 μM of the exemplary compounds 1-200 were add. The 96 well plates were incubated for 48 hours. Cell viability was measured by adding MTT (Sigma) at 5 mg/ml for 4 h to the cells and then removing the medium and resuspending each well in 50 μl DMSO to solubilize the crystals. The 96-well plates were read on a plate-scanning spectrophotometer (BioTek) at an absorbance of […]. The survival rate of cells was calculated based on the measurement of absorption at the 570 nm wavelength by enzyme immunoassay analyzer.

Compound	viability at 48 h, 0.2 µM (0.2 μM)	viability at 48 h, 1 µM (1 μM)	viability at 48 h, 5 µM (5 μM)	viability at 48 h, 0.2 µM (0.2 μM compound)	viability at 48 h, 1 µM (1 μM compound)	viability at 48 h, 5 µM (5 μM compound)
Oc1ccc(Nc2nnc(-c3cccc(Cl)c3)[nH]2)cc1 [Compound 182]	> 70%	> 70%	> 70%	–	–	–
CCOc1cc(Oc2cccc(-c3nnc(Nc4cccc(C(F)(F)F)c4)[nH]3)c2)nc(N)n1 [Compound 57]	> 70%	> 70%	> 70%	–	–	–
CSc1nc(N)cc(Oc2ccc(-c3nnc(Nc4cccc(CC#N)c4)[nH]3)cc2)n1 [Compound 130]	> 70%	> 70%	< 50%	–	–	–
CN(C)c1cc(Oc2ccc(-c3nnc(Nc4cccc(C(F)(F)F)c4)[nH]3)cc2)c2ccccc2n1 [Compound 190]	> 70%	> 70%	50 to 70%	–	–	–
COc1nccc(Oc2ccc(-c3nnc(Nc4cccc(C(F)(F)F)c4)[nH]3)cc2)n1 [Compound 71]	> 70%	> 70%	50 to 70%	–	–	–
CCOc1cc(Oc2ccc(-c3nnc(Nc4cccc(C(F)(F)F)c4)[nH]3)cc2)nc(N)n1 [Compound 52]	> 70%	> 70%	> 70%	–	–	–
O=[N+]([O-])c1cc(F)cc(Oc2ccc(-c3nnc(Nc4cccc(C(F)(F)F)c4)[nH]3)cc2)c1 [Compound 147]	> 70%	> 70%	50 to 70%	–	–	–
CSc1nc(N)cc(Oc2ccc(-c3nnc(Nc4ccccc4Cl)[nH]3)cc2)n1 [Compound 140]	> 70%	> 70%	50 to 70%	–	–	–
Cc1ccc(-c2nnc(Nc3cccc(C(F)(F)F)c3)[nH]2)cc1Oc1ccncc1 [Compound 178]	50 to 70%	< 50%	< 50%	–	–	–
Cc1cc(Oc2cccc(-c3nnc(Nc4cccc(C(F)(F)F)c4)[nH]3)c2)nc(N)n1 [Compound 54]	> 70%	< 50%	< 50%	–	–	–
FC(F)(F)c1cccc(Nc2nnc(-c3ccc(Oc4ccnc5ccccc45)cc3)[nH]2)c1 [Compound 12]	> 70%	> 70%	50 to 70%	–	–	–
COCCOc1cc(Oc2ccc(-c3nnc(Nc4cccc(C(F)(F)F)c4)[nH]3)cc2)nc(N)n1 [Compound 53]	> 70%	> 70%	< 50%	–	–	–
FC(F)(F)c1cccc(Nc2nnc(-c3ccc(Oc4ccnc5ccccc45)cc3)s2)c1 [Compound 47]	> 70%	> 70%	> 70%	–	–	–
O=c1cc(COc2cccc(-c3nnc(Nc4cccc(C(F)(F)F)c4)[nH]3)c2)c2ccccc2[nH]1 [Compound 171]	> 70%	> 70%	> 70%	–	–	–
FC(F)(F)c1cccc(Nc2nnc(-c3ccc(Oc4ccnc5ccccc45)cc3)o2)c1 [Compound 34]	> 70%	> 70%	> 70%	–	–	–
CSc1nc(N)cc(Oc2ccc(-c3cnc(Nc4cccc(C(F)(F)F)c4)[nH]3)cc2)n1 [Compound 199]	–	–	–	< 50%	< 50%	< 50%
Cc1nc(N)cc(Oc2ccc(-c3nnc(Nc4cccc(C(F)(F)F)c4)[nH]3)cc2)n1 [Compound 82]	> 70%	> 70%	50 to 70%	–	–	–
COc1cc(Oc2cccc(-c3nnc(Nc4cccc(C(F)(F)F)c4)[nH]3)c2)ccn1 [Compound 90]	> 70%	> 70%	> 70%	–	–	–
COCCOCCSc1nc(N)cc(Oc2ccc(-c3nnc(Nc4cccc(C(F)(F)F)c4)[nH]3)cc2)n1 [Compound 113]	> 70%	> 70%	–	–	–	–

Compound	viability at 48 h, 0.2 µM (0.2 μM)	viability at 48 h, 1 µM (1 μM)	viability at 48 h, 5 µM (5 μM)	viability at 48 h, 0.2 µM (0.2 μM compound)	viability at 48 h, 1 µM (1 μM compound)	viability at 48 h, 5 µM (5 μM compound)
FC(F)(F)c1cccc(Nc2nnc(-c3ccc(Oc4cncc5ccccc45)cc3)[nH]2)c1 [Compound 146]	> 70%	> 70%	< 50%	–	–	–
Oc1ccc(Nc2nnc(-c3cccc(C(F)(F)F)c3)[nH]2)cc1 [Compound 181]	> 70%	> 70%	> 70%	–	–	–
CSc1nc(N)cc(Oc2cc(-c3nnc(Nc4cccc(C(F)(F)F)c4)[nH]3)ccc2C)n1 [Compound 179]	> 70%	> 70%	50 to 70%	–	–	–
Cc1cc(Oc2cccc(-c3nnc(Nc4cccc(C(F)(F)F)c4)[nH]3)c2)ccn1 [Compound 91]	> 70%	> 70%	50 to 70%	–	–	–
COc1ccc2c(Oc3ccc(-c4nnc(Nc5cccc(C(F)(F)F)c5)[nH]4)cc3)ncnc2c1 [Compound 70]	> 70%	> 70%	< 50%	–	–	–
CSc1nc(N)cc(Oc2ccc(-c3nnc(Nc4cccc(C(F)(F)F)c4)o3)cc2)n1 [Compound 25]	< 50%	< 50%	< 50%	–	–	–
Nc1cc(Oc2cccc(-c3nnc(Nc4cccc(C(F)(F)F)c4)o3)c2)ccn1 [Compound 38]	> 70%	> 70%	> 70%	–	–	–
FC(F)(F)c1cccc(Nc2nnc(-c3ccc(Oc4ccncc4)cc3Cl)[nH]2)c1 [Compound 111]	> 70%	> 70%	> 70%	–	–	–
FC(F)(F)Oc1ccc2c(Oc3ccc(-c4nnc(Nc5cccc(C(F)(F)F)c5)[nH]4)cc3)ccnc2c1 [Compound 163]	> 70%	> 70%	> 70%	–	–	–
FC(F)(F)c1cccc(Nc2nnc(-c3ccc(Oc4cncnc4)cc3)[nH]2)c1 [Compound 83]	> 70%	> 70%	> 70%	–	–	–
CNC(=O)CSc1nc(N)cc(Oc2ccc(-c3nnc(Nc4cccc(C(F)(F)F)c4)[nH]3)cc2)n1 [Compound 117]	> 70%	> 70%	> 70%	–	–	–
Cc1nc(N)cc(Oc2cccc(-c3nnc(Nc4cccc(C(F)(F)F)c4)[nH]3)c2)n1 [Compound 100]	> 70%	> 70%	> 70%	–	–	–
CSc1nc(N)cc(Oc2ccc(Nc3nnc(-c4cccc(Cl)c4)[nH]3)cc2)n1 [Compound 180]	> 70%	> 70%	50 to 70%	–	–	–
COc1ccc2c(Oc3ccc(-c4nnc(Nc5cccc(C(F)(F)F)c5)s4)cc3)ccnc2c1 [Compound 46]	> 70%	> 70%	< 50%	–	–	–
Nc1nccc(Oc2cccc(-c3nnc(Nc4cccc(C(F)(F)F)c4)[nH]3)c2)n1 [Compound 15]	> 70%	> 70%	> 70%	–	–	–
CN(C)c1cc(Oc2ccc(-c3nnc(Nc4cccc(C(F)(F)F)c4)[nH]3)cc2)c2ccccc2n1 [Compound 196]	–	–	–	> 70%	> 70%	50 to 70%
FC(F)(F)c1cccc(Nc2nnc(-c3ccc(Oc4ccnc5cc(Cl)ccc45)cc3)[nH]2)c1 [Compound 150]	> 70%	> 70%	> 70%	–	–	–
FC(F)(F)c1cccc(Nc2nnc(-c3cccc(Oc4ncnc5[nH]ccc45)c3)o2)c1 [Compound 60]	> 70%	> 70%	> 70%	–	–	–
FC(F)(F)c1cccc(Nc2nnc(-c3ccc(OCc4ccncc4)cc3)[nH]2)c1 [Compound 143]	> 70%	> 70%	> 70%	–	–	–

From US9212151B2, “Heterocyclic compounds useful for kinase inhibition” (Amitech Therapeutic Solutions, Inc., priority 2010, dated 2015)
